This is an account of results in ChEMBL document CHEMBL5465560, “Selectivity Literature for EUbOPEN Chemogenomic Library” (2024).

The target in test [1] is T1, Serine/threonine-protein kinase 4 (Homo sapiens) (UniProt Q13043).
T1 sequence (whole entry): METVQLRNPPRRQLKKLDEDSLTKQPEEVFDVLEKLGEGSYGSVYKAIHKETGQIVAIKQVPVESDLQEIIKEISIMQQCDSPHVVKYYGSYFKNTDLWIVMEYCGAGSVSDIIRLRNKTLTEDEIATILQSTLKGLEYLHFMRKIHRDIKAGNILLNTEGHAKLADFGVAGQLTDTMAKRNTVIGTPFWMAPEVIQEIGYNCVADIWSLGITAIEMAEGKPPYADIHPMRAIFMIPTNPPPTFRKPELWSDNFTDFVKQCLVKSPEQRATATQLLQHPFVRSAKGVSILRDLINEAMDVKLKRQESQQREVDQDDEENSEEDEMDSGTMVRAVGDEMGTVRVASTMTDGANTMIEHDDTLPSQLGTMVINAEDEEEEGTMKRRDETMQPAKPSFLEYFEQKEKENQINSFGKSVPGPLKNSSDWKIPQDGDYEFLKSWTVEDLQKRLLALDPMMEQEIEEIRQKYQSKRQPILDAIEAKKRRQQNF
As to the kind of experiment: Selectivity interaction (Kinase panel (Z-LYTE Assay)) EUB0001632a STK4. The following applies: at 10 µM.

In test [2] the target is Serine/threonine-protein kinase/endoribonuclease IRE1 (Homo sapiens) (UniProt O75460). The note with it: at 10 µM.
Serine/threonine-protein kinase/endoribonuclease IRE1 (Homo sapiens), sequence (O75460 19-977 limits assumed): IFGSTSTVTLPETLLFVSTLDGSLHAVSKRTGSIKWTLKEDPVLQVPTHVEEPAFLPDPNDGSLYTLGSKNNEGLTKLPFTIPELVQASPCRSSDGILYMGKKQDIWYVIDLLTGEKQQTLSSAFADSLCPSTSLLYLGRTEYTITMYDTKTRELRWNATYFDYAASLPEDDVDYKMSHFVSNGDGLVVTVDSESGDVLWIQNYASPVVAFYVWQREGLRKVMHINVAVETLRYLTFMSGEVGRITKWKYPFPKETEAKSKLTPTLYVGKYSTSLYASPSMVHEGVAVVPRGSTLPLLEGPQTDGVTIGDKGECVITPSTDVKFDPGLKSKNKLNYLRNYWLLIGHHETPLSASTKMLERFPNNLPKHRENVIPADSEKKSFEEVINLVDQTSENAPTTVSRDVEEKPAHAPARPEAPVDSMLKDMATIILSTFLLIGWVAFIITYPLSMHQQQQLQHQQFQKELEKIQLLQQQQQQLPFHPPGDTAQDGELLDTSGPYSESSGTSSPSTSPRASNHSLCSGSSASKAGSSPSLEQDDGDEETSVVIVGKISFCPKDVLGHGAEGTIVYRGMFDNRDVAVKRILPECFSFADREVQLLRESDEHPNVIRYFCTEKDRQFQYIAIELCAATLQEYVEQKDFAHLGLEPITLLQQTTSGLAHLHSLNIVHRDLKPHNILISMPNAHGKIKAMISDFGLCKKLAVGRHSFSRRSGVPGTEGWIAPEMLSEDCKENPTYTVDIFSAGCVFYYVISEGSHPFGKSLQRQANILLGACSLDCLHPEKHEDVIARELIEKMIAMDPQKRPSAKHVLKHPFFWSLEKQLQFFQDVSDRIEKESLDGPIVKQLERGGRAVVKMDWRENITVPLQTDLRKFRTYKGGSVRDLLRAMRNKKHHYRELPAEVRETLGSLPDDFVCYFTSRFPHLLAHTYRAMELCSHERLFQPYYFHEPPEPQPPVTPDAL
Test [3] concerns Epidermal growth factor receptor (Homo sapiens), P00533 [UNDEFINED MUTATION]. Put plainly: Selectivity interaction (KinomeScan (DiscoverX)) EUB0000229b EGFR. The following applies: at 1 µM.
Epidermal growth factor receptor (Homo sapiens), P00533 [UNDEFINED MUTATION], sequence (P00533 whole entry, looked up, change not shown): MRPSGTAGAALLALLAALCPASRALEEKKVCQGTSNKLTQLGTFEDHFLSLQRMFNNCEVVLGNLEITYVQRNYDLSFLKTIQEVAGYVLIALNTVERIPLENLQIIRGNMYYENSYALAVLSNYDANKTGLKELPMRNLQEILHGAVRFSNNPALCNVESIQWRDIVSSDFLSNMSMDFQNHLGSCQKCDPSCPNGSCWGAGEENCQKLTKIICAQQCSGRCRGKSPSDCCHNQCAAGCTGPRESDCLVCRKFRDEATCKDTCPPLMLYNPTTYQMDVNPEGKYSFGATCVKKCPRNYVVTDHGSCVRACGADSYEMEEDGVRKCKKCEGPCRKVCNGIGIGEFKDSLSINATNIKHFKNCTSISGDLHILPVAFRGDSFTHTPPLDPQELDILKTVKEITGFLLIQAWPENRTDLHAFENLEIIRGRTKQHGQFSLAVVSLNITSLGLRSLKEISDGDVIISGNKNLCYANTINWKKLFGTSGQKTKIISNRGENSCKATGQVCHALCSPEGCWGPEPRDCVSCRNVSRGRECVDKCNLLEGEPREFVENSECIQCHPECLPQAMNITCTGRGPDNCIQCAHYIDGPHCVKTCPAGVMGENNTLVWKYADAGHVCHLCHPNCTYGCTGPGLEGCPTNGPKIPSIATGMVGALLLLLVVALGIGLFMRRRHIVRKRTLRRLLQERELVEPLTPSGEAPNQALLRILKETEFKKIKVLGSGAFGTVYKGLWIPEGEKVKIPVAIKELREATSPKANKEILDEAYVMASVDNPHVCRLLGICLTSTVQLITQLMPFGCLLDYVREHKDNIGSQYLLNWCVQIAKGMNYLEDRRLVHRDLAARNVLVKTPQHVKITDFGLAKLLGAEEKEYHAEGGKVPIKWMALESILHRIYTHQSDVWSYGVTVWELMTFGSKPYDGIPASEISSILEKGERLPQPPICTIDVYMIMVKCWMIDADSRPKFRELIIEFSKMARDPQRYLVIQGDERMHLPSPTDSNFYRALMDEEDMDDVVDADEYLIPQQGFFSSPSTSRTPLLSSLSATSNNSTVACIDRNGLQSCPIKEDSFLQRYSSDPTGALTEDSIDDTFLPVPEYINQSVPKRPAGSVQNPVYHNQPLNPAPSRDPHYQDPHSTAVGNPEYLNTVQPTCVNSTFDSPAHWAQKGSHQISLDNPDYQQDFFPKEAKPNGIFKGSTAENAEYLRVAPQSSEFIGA
Test [4] addresses Vascular endothelial growth factor receptor 3 (Homo sapiens, UniProt P35916). As to the kind of experiment: Selectivity interaction (Kinase panel (Invitrogen)) EUB0000639a FLT4. The following applies: at 200 nM.
Another test addresses T2, Peregrin (Homo sapiens) (UniProt P55201).
T2 sequence (whole entry): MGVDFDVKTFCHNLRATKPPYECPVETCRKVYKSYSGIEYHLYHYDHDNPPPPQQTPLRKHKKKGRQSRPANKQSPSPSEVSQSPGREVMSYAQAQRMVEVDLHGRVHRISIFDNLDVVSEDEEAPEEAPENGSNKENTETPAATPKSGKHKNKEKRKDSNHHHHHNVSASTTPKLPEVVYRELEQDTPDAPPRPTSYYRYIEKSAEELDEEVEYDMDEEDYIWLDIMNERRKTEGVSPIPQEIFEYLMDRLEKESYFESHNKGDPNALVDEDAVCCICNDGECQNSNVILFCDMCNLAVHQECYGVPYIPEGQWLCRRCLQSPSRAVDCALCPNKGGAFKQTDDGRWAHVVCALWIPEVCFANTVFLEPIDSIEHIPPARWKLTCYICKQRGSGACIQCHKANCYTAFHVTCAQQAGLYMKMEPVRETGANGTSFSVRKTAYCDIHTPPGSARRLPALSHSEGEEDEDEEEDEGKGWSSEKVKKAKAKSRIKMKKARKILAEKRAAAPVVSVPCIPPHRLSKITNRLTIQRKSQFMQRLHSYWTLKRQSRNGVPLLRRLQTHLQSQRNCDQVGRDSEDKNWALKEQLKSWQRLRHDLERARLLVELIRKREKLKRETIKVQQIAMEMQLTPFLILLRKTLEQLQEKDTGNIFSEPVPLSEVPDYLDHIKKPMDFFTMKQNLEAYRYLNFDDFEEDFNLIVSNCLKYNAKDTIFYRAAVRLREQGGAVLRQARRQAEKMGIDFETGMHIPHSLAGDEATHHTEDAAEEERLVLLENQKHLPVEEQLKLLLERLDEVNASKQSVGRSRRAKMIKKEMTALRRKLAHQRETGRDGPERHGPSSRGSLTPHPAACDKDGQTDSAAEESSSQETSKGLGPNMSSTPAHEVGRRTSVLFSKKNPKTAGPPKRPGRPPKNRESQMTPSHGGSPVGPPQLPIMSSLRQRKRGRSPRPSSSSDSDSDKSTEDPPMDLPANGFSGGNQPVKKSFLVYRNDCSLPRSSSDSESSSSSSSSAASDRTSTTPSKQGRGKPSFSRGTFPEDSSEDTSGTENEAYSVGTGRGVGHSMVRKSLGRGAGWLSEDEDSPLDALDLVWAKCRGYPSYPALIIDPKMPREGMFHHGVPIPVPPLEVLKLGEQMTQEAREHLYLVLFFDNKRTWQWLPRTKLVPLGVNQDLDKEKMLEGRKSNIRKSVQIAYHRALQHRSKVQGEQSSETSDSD
Put plainly: Selectivity interaction (PWWP, WD40, and Tudor domain panel (DSLS measurements, literature)) EUB0000270b BRPF1.

In test [5] the target is Receptor-interacting serine/threonine-protein kinase 2 (Homo sapiens, UniProt O43353). As to the kind of experiment: Selectivity interaction (KinomeScan (DiscoverX)) EUB0000092b RIPK2. The note with it: at 10 µM.
Receptor-interacting serine/threonine-protein kinase 2, sequence (O43353 whole entry): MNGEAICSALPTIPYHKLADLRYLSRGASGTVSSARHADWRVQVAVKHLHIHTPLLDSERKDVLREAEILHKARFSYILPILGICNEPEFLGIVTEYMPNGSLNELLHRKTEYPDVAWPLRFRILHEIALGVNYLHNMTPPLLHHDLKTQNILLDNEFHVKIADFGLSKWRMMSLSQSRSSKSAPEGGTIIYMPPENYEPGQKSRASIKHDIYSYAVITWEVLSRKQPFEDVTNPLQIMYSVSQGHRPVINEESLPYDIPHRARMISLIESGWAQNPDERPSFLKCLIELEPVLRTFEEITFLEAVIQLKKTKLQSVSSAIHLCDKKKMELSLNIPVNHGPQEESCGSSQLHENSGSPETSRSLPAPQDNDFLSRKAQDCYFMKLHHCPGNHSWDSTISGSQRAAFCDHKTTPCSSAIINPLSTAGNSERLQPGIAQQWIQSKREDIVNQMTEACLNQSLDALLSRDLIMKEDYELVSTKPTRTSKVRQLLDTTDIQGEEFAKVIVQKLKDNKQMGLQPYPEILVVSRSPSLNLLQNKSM
Test [6] deals with T3, Mitogen-activated protein kinase kinase kinase kinase 2 (Homo sapiens) (UniProt Q12851).
T3 sequence (whole entry): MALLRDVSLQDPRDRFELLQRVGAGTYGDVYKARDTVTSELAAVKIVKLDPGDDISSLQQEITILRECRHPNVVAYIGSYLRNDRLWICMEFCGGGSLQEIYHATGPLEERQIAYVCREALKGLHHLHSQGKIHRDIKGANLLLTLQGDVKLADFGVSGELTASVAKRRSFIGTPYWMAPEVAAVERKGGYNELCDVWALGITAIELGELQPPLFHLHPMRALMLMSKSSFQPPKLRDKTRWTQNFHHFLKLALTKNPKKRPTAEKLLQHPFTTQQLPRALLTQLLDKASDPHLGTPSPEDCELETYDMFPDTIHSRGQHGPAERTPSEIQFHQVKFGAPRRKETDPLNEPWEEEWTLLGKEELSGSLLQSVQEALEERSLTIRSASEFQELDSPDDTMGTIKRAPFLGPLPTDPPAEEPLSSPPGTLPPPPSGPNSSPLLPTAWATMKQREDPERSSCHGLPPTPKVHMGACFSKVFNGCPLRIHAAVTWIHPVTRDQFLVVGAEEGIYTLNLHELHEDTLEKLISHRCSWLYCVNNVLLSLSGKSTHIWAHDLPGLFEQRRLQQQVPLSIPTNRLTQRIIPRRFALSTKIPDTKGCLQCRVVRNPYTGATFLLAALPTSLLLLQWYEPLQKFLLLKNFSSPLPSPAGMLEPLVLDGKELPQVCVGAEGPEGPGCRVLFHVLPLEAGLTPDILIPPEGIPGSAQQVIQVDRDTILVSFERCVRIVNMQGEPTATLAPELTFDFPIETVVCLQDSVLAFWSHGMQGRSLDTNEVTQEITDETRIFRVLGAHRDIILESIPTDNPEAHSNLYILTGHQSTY
As to the kind of experiment: Selectivity interaction (KinomeScan (DiscoverX)) EUB0000618a MAP4K2. The following applies: at 10 µM.

In test [7] the target is Protein kinase C delta type (Homo sapiens) (UniProt Q05655). Put plainly: Selectivity interaction (KinomeScan (DiscoverX)) EUB0000595a PRKCD. The following applies: at 10 µM.
Protein kinase C delta type (Homo sapiens), sequence (Q05655 whole entry, looked up): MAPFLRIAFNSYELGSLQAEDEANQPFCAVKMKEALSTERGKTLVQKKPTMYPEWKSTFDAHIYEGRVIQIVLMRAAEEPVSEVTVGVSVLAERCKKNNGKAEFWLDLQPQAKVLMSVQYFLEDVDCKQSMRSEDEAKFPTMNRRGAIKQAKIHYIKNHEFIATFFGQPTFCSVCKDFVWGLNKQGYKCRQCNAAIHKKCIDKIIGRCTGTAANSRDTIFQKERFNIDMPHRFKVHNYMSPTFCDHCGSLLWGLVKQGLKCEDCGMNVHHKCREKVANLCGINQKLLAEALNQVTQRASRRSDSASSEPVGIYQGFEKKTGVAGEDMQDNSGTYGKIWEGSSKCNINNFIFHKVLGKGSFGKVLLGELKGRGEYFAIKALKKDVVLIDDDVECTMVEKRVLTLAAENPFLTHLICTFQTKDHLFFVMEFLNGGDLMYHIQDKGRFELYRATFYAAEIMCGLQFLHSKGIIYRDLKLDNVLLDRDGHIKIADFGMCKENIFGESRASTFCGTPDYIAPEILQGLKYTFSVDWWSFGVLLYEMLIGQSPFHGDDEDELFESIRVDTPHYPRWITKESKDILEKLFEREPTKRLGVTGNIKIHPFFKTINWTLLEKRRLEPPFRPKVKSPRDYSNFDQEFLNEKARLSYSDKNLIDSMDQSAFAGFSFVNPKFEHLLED

Vascular endothelial growth factor receptor 3, sequence (P35916 whole entry): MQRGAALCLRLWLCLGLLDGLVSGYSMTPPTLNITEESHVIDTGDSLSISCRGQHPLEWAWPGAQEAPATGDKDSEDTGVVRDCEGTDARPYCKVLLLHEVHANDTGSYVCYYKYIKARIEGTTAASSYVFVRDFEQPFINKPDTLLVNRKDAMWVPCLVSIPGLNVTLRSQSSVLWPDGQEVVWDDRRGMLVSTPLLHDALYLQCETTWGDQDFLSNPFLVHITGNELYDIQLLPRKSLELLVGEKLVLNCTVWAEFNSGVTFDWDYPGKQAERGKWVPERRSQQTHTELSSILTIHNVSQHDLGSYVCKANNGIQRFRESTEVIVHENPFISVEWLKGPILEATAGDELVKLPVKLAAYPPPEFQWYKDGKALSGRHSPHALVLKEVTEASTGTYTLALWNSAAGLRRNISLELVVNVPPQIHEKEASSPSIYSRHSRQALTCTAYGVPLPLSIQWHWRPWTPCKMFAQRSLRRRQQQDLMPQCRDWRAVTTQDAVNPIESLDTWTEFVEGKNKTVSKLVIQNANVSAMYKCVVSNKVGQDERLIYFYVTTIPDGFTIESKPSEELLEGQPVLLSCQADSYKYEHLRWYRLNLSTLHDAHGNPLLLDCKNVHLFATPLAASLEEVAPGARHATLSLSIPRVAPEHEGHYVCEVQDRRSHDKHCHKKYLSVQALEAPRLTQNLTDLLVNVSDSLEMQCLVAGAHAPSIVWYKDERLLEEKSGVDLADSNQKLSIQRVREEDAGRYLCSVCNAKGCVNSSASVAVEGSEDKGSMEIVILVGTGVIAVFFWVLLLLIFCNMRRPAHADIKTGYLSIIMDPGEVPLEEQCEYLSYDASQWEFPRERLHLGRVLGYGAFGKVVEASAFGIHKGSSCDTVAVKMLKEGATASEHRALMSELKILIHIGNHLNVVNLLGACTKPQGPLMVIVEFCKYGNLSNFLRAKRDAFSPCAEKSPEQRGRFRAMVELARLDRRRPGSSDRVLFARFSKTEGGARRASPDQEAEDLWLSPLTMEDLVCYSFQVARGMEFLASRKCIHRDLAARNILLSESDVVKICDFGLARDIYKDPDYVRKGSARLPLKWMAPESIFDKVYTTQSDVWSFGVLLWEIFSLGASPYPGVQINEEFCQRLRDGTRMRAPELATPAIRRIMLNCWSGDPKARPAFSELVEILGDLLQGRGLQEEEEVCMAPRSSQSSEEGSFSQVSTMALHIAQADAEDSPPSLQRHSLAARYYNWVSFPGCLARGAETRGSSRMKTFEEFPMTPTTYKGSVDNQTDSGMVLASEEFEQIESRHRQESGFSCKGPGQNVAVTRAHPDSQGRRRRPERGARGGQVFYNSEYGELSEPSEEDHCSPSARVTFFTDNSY

For `Cn1cc(-n2cnc3c(NCc4nc5cc(Cl)c(Cl)cc5[nH]4)nc(N4CCOCC4)nc32)cn1`, in test [1], the % of control was -9.12%. As for `Cc1cc([C@@H](C)Nc2ccccc2C(=O)O)c2nc(N3CCOCC3)cc(=O)n2c1` [AZD-6482], the % of control in test [2] was 91%. `COc1cc(N(C)c2ccnc3ccc(C(F)(F)F)cc23)cc(OC)c1OC` registered a % binding in test [3] of 95%. In test [4], `CC[C@@H]1[C@H](F)C(=O)N[C@@H]1COc1nccc2cc(C(N)=O)c(OC)cc12` [ZIMLOVISERTIB] registered a % of inhibition of 0.591%. Turning to `Cc1cc(CN)cc(C)c1-c1ncn(C)c1-c1cncn1C`, on Peregrin (Homo sapiens), the dTagg stood at 0 K. As to `CCC(=O)N1CCN(c2ccc(-n3c(=O)ccc4cnc5ccc(-c6cnc7ccccc7c6)cc5c43)cc2C(F)(F)F)CC1`, the % of control in test [5] was determined as 44%. With `O[C@H]1CC[C@H](Nc2ncc3nc(Nc4c(F)cc(F)cc4F)n([C@H]4CCOC4)c3n2)CC1`, in test [6], the % of control was 91%.

As to `COCC(=O)NC/C=C/c1ccc2ncnc(Nc3ccc(Oc4ccc(C)nc4)c(C)c3)c2c1` [CP-724714], in test [7], the % of control is 87%.
